Test results published in patent US20230148599A1, “FUNGICIDAL MIXTURES CONTAINING PYRAZOLE DERIVATIVES” (FMC Corporation, priority 2020, published 2023).

Columns and labels:
Type in all cases: in vivo
Conditions in all cases: 50 ppm, 100 = 100% disease control, 0 = no control
Septoria tritici = test: Test A: wheat leaf blotch, preventive spray on wheat seedlings
Summary of the method: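 Wheat seedlings sprayed to run-off with compound suspended in acetone/water with 250 ppm PEG400 surfactant, inoculated next day with Septoria tritici spores. Held 48 h saturated at 24 °C, then 17 days at 20 °C; disease rated 0–100% control relative to controls.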

[1] = system: Puccinia recondita f. sp. tritici; test: Test B: wheat leaf rust, preventive spray on wheat seedlings
Summary of the method: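 Wheat seedlings were sprayed to run-off with compound suspended at ppm concentrations in acetone/water containing 250 ppm PEG400. The next day they were inoculated with Puccinia recondita f. sp. tritici spores, held saturated at 20 °C for 24 h, then kept 7 days at 20 °C. Disease control was rated 0–100% relative to untreated controls.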

Phakopsora pachyrhizi = test: Test D: Asian soybean rust, preventive spray on soybean seedlings
Summary of the method: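 Compounds in acetone/water (50/50) with 250 ppm PEG400, dosed in ppm, sprayed to run-off on soybean seedlings; inoculated with P. pachyrhizi spores next day. Held 24 h at 22 °C in saturated air, then 8 days at 22 °C; visual rating of disease control, 0–100, relative to untreated controls.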

Botrytis cinerea = test: Test E: tomato Botrytis, preventive spray on tomato seedlings
Summary of the method: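 Compound suspended in 50/50 acetone/water with 250 ppm PEG400 surfactant and sprayed to run-off on tomato seedlings; Botrytis cinerea spores applied the next day. Incubation 48 h at 20° C in saturated atmosphere, then 3 days at 24° C. Visual rating 0–100% disease control relative to controls.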

Alternaria solani = test: Test F: tomato early blight, preventive spray on tomato seedlings
Summary of the method: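 Tomato seedlings were sprayed to run-off with compound suspended in acetone/water (50/50) with 250 ppm PEG400 and inoculated with Alternaria solani spores the next day. Plants were held 48 h at 27 °C in saturated humidity, then 3 days at 20 °C. Disease control was rated visually from 0 to 100 against untreated controls.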

[2] = system: Blumeria graminis f. sp. tritici; test: Test C: wheat powdery mildew, preventive spray on wheat seedlings
Summary of the method: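 Seedlings were sprayed to run-off with compound suspended (ppm) in 50/50 acetone–water containing 250 ppm PEG400, then spore-dust inoculated the following day. After 8 days at 20° C, disease control was rated visually from 0 to 100 against controls.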

SMILES | Test A disease control rating (Septoria tritici) | Test B disease control rating [1] | Test D disease control rating (Phakopsora pachyrhizi) | Test E disease control rating (Botrytis cinerea) | Test F disease control rating (Alternaria solani) | Test C disease control rating [2]
COc1cc(F)c(-c2c(C)nn(C)c2Nc2c(F)cc(F)cc2[N+](=O)[O-])c(F)c1 [compound 84] | 100% | 100% | 48% | 90% | 99% | 99%
COc1cc(F)c(Nc2c(-c3ccc(F)cc3Cl)c(C)nn2C)c([N+](=O)[O-])c1 [compound 85] | 100% | 100% | 96% | 94% | 98% | 97%
COc1cc(F)c(-c2c(C)nn(C)c2Nc2c(F)cc(Cl)cc2[N+](=O)[O-])c(F)c1 [compound 86] | 100% | 100% | 77% | 96% | 99% | 98%
Cc1ccc(Nc2c(-c3ccc(F)cc3Br)c(C)nn2C)c([N+](=O)[O-])c1 [compound 90] | 100% | 95% | 0% | 99% | 9% | 87%
Cc1nn(C)c(Nc2ccc(Br)cc2[N+](=O)[O-])c1-c1ccc(F)cc1Cl [compound 91] | 99% | 88% | 0% | 99% | 26% | 84%
Cc1nn(C)c(Nc2ccc(Cl)cc2[N+](=O)[O-])c1-c1ccc(F)cc1Cl [compound 92] | 100% | 96% | 0% | 100% | 79% | 89%
Cc1nn(C)c(Nc2ccc(OC(F)(F)F)cc2[N+](=O)[O-])c1-c1ccc(F)cc1Cl [compound 94] | 73% | 0% | 73% | 0% | 9% | 72%
CCc1nn(C)c(Nc2c(F)cc(F)cc2[N+](=O)[O-])c1-c1ccc(F)cc1Cl [compound 95] | 100% | 100% | 84% | 99% | 99% | 100%
Cc1nn(C)c(Nc2c(Cl)cc(Cl)cc2[N+](=O)[O-])c1-c1c(F)cccc1F [compound 96] | 100% | 95% | 0% | 80% | 0% | 0%
COc1cc(F)c(Nc2c(-c3c(F)cccc3F)c(C)nn2C)c([N+](=O)[O-])c1 [compound 97] | 100% | 100% | 96% | 100% | 99% | 100%
Cc1nn(C)c(Nc2c(F)cc(Cl)cc2[N+](=O)[O-])c1-c1c(F)cccc1F [compound 98] | 100% | 97% | 0% | 99% | 98% | 93%
Cc1nn(C)c(Nc2cccc(Cl)c2[N+](=O)[O-])c1-c1c(F)cccc1F [compound 99] | 99% | 0% | 0% | 24% | 0% | 0%
Cc1cc(Cl)c(Nc2c(-c3c(F)cccc3F)c(C)nn2C)c([N+](=O)[O-])c1 [compound 100] | 100% | 89% | 0% | 26% | 0% | 21%
